According to PubChem BioAssay (NCI):
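Tested at 5 concentrations; 48 h exposure; 96-well plates; endpoints linearly interpolated, else capped at highest concentration. At the TGI there is no net growth.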

How the values were obtained:
Assay in all cases: DTP human tumour cell line panel, 48 h
786-0 renal = test system: 786-0 renal
A498 renal = test system: A498 renal
A549 NSCLC = test system: A549 NSCLC
CAKI-1 renal = test system: CAKI-1 renal
CCRF-CEM leukemia = test system: CCRF-CEM leukemia
COLO 205 colon = test system: COLO 205 colon
DLD-1 colon = test system: DLD-1 colon
DMS 114 small cell lung = test system: DMS 114 small cell lung
DMS 273 small cell lung = test system: DMS 273 small cell lung
EKVX NSCLC = test system: EKVX NSCLC
HCT-116 colon = test system: HCT-116 colon
HCT-15 colon = test system: HCT-15 colon
HL-60(TB) leukemia = test system: HL-60(TB) leukemia
HOP-62 NSCLC = test system: HOP-62 NSCLC
HOP-92 NSCLC = test system: HOP-92 NSCLC
HT29 colon = test system: HT29 colon
IGROV1 ovarian = test system: IGROV1 ovarian
K-562 leukemia = test system: K-562 leukemia
KM12 colon = test system: KM12 colon
KM20L2 colon = test system: KM20L2 colon
LOX IMVI melanoma = test system: LOX IMVI melanoma
M14 melanoma = test system: M14 melanoma
M19-MEL melanoma = test system: M19-MEL melanoma
MALME-3M melanoma = test system: MALME-3M melanoma
MOLT-4 leukemia = test system: MOLT-4 leukemia
NCI-H226 lung = test system: NCI-H226 lung
NCI-H23 lung = test system: NCI-H23 lung
NCI-H460 lung = test system: NCI-H460 lung
NCI-H522 lung = test system: NCI-H522 lung
OVCAR-3 ovarian = test system: OVCAR-3 ovarian
OVCAR-4 ovarian = test system: OVCAR-4 ovarian
OVCAR-5 ovarian = test system: OVCAR-5 ovarian
OVCAR-8 ovarian = test system: OVCAR-8 ovarian
RPMI-8226 leukemia = test system: RPMI-8226 leukemia
RXF 393 renal = test system: RXF 393 renal
RXF-631 renal = test system: RXF-631 renal
SF-268 CNS = test system: SF-268 CNS
SF-295 CNS = test system: SF-295 CNS
SF-539 CNS = test system: SF-539 CNS
SK-MEL-2 melanoma = test system: SK-MEL-2 melanoma
SK-MEL-5 melanoma = test system: SK-MEL-5 melanoma
SK-OV-3 ovarian = test system: SK-OV-3 ovarian
SN12C renal = test system: SN12C renal
SNB-19 CNS = test system: SNB-19 CNS
SNB-75 CNS = test system: SNB-75 CNS
SNB-78 CNS = test system: SNB-78 CNS
SR leukemia = test system: SR leukemia
SW-620 colon = test system: SW-620 colon
TK-10 renal = test system: TK-10 renal
U251 CNS = test system: U251 CNS
UACC-257 melanoma = test system: UACC-257 melanoma
UACC-62 melanoma = test system: UACC-62 melanoma
UO-31 renal = test system: UO-31 renal
XF 498 CNS = test system: XF 498 CNS
ACHN renal = test system: ACHN renal
HCC-2998 colon = test system: HCC-2998 colon
LXFL 529 NSCLC = test system: LXFL 529 NSCLC
SK-MEL-28 melanoma = test system: SK-MEL-28 melanoma

O=C1C(c2ccccc2)=C(c2ccccc2)C(c2ccc(Sc3ccc(C4=C(c5ccccc5)C(=O)C(c5ccccc5)=C4c4ccccc4)cc3)cc2)=C1c1ccccc1
TGI (786-0 renal): > 100 µM | TGI (A498 renal): > 100 µM | TGI (A549 NSCLC): > 100 µM | TGI (CAKI-1 renal): > 100 µM | TGI (CCRF-CEM leukemia): > 100 µM | TGI (COLO 205 colon): > 100 µM | TGI (DLD-1 colon): > 100 µM | TGI (DMS 114 small cell lung): > 100 µM | TGI (DMS 273 small cell lung): > 100 µM | TGI (EKVX NSCLC): > 100 µM | TGI (HCT-116 colon): > 100 µM | TGI (HCT-15 colon): > 100 µM | TGI (HL-60(TB) leukemia): > 100 µM | TGI (HOP-62 NSCLC): > 100 µM | TGI (HOP-92 NSCLC): > 100 µM | TGI (HT29 colon): > 100 µM | TGI (IGROV1 ovarian): > 100 µM | TGI (K-562 leukemia): > 100 µM | TGI (KM12 colon): > 100 µM | TGI (KM20L2 colon): > 100 µM | TGI (LOX IMVI melanoma): > 100 µM | TGI (M14 melanoma): > 100 µM | TGI (M19-MEL melanoma): > 100 µM | TGI (MALME-3M melanoma): > 100 µM | TGI (MOLT-4 leukemia): > 100 µM | TGI (NCI-H226 lung): > 100 µM | TGI (NCI-H23 lung): > 100 µM | TGI (NCI-H460 lung): > 100 µM | TGI (NCI-H522 lung): > 100 µM | TGI (OVCAR-3 ovarian): > 100 µM | TGI (OVCAR-4 ovarian): > 100 µM | TGI (OVCAR-5 ovarian): > 100 µM | TGI (OVCAR-8 ovarian): > 100 µM | TGI (RPMI-8226 leukemia): > 100 µM | TGI (RXF 393 renal): > 100 µM | TGI (RXF-631 renal): > 100 µM | TGI (SF-268 CNS): > 100 µM | TGI (SF-295 CNS): > 100 µM | TGI (SF-539 CNS): > 100 µM | TGI (SK-MEL-2 melanoma): > 100 µM | TGI (SK-MEL-5 melanoma): > 100 µM | TGI (SK-OV-3 ovarian): > 100 µM | TGI (SN12C renal): > 100 µM | TGI (SNB-19 CNS): > 100 µM | TGI (SNB-75 CNS): 76.5 µM | TGI (SNB-78 CNS): > 100 µM | TGI (SR leukemia): > 100 µM | TGI (SW-620 colon): > 100 µM | TGI (TK-10 renal): > 100 µM | TGI (U251 CNS): > 100 µM | TGI (UACC-257 melanoma): > 100 µM | TGI (UACC-62 melanoma): > 100 µM | TGI (UO-31 renal): > 100 µM | TGI (XF 498 CNS): > 100 µM

O=C(CSSCC(=O)Nc1ccc(Br)cc1)Nc1ccc(Br)cc1
TGI (786-0 renal): 31.4 µM | TGI (A498 renal): 34.1 µM | TGI (A549 NSCLC): 35.8 µM | TGI (ACHN renal): 30 µM | TGI (CAKI-1 renal): 50.3 µM | TGI (COLO 205 colon): 74 µM | TGI (DLD-1 colon): 35.9 µM | TGI (DMS 114 small cell lung): 28.2 µM | TGI (DMS 273 small cell lung): 30.8 µM | TGI (EKVX NSCLC): 48.9 µM | TGI (HCC-2998 colon): 50.6 µM | TGI (HCT-116 colon): 28.1 µM | TGI (HCT-15 colon): 46.6 µM | TGI (HL-60(TB) leukemia): 48.5 µM | TGI (HOP-62 NSCLC): 25.9 µM | TGI (HOP-92 NSCLC): 34.1 µM | TGI (HT29 colon): 47.6 µM | TGI (IGROV1 ovarian): 39 µM | TGI (K-562 leukemia): > 100 µM | TGI (KM12 colon): 55.4 µM | TGI (KM20L2 colon): 29.2 µM | TGI (LOX IMVI melanoma): 26.3 µM | TGI (LXFL 529 NSCLC): 31.2 µM | TGI (M14 melanoma): 32.7 µM | TGI (M19-MEL melanoma): 34.2 µM | TGI (MALME-3M melanoma): 43 µM | TGI (MOLT-4 leukemia): 67 µM | TGI (NCI-H226 lung): 31.7 µM | TGI (NCI-H23 lung): 35.2 µM | TGI (NCI-H460 lung): 37.7 µM | TGI (NCI-H522 lung): 24.8 µM | TGI (OVCAR-3 ovarian): 32.1 µM | TGI (OVCAR-4 ovarian): 35.4 µM | TGI (OVCAR-5 ovarian): 41.7 µM | TGI (OVCAR-8 ovarian): 31.6 µM | TGI (RPMI-8226 leukemia): 64.3 µM | TGI (RXF 393 renal): 33.2 µM | TGI (SF-268 CNS): 26.6 µM | TGI (SF-295 CNS): 28 µM | TGI (SF-539 CNS): 31.6 µM | TGI (SK-MEL-28 melanoma): 32.4 µM | TGI (SK-MEL-5 melanoma): 45.8 µM | TGI (SK-OV-3 ovarian): 40 µM | TGI (SN12C renal): 30.2 µM | TGI (SNB-19 CNS): 29.4 µM | TGI (SNB-75 CNS): 40.1 µM | TGI (SNB-78 CNS): 32.5 µM | TGI (SR leukemia): 37.9 µM | TGI (SW-620 colon): 29.4 µM | TGI (TK-10 renal): 30.5 µM | TGI (U251 CNS): 27.6 µM | TGI (UACC-257 melanoma): 37.6 µM | TGI (UACC-62 melanoma): 29.3 µM | TGI (UO-31 renal): 31.8 µM | TGI (XF 498 CNS): 34.5 µM
